The values below come from patent US20130331378A1, “PYRAZOLOPYRIDINE DERIVATIVE OR PHARMACOLOGICALLY ACCEPTABLE SALT THEREOF” (KISSEI PHARMACEUTICAL CO., LTD., priority 2011, published 2013).

The test system of test [1] is 17-PTP-induced bladder contraction. Kind of test: Suppressing effect on 17-phenyl trinor prostaglandin E2 (17-PTP)-induced bladder contraction. In kind it is in vivo, Wistar-type male rat. The following applies: urethane-anesthetized spinal cord-cut rat; test compound 1 mg/kg i.v. 5 minutes before 17-PTP i.a.; most decreased value until 95 minutes, relative to average before test compound administration. The method, then:
(1) Preparation of Experimental Animal
A 10 w/v % urethane solution was subcutaneously administered (s. c.) at a dose of 1.5 g/kg to a Wistar-type male rat to thereby induce anesthesia. Approximately 40 minutes after the urethane administration, the rat was confirmed to be fully anesthetized, hair in the back, the thighs on both sides, the abdomen, and the neck was shaved, and fixation in a face-down position was performed. After midline incision of the dorsal skin, thoracodorsal muscles on both sides were incised along the spine, and the muscular layer was opened with a retractor to expose the thoracic spine. While the ninth thoracic vertebra was pulled cranially, a small hole was made with bone forceps, and from it, the spinal cord was cut using a soldering iron. At this time, in the case where bleeding was heavy, a gelatin sponge for hemostasis was put into the cut portion. The thoracodorsal incision layer was closed using a surgical adhesive, and then, the rat was fixed in a face-up position. […]
The rat was placed in a face-up position on a heating pad for small animals, and a rectal temperature probe was inserted from the anus to keep the body temperature at 37.5° C. The body temperature was confirmed to become 37.5° C., then 0.1 mL of a physiological saline solution was injected into the bladder, and intravesical pressure was measured. […]

The next test addresses T1, rat EP1 receptor (Rattus norvegicus, UniProt P70597).
T1 construct: expressed in transfected cells
T1 sequence (P70597 1-405): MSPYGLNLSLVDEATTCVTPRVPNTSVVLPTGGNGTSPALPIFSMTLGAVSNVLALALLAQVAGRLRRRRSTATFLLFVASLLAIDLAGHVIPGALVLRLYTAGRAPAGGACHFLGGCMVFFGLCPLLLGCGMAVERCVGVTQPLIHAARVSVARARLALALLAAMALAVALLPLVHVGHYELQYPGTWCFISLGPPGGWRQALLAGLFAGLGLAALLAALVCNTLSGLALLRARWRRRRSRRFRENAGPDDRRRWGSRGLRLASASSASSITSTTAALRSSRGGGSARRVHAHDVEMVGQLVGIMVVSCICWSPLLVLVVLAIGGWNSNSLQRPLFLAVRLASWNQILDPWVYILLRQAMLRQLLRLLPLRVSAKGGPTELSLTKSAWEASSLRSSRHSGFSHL
As to the kind of experiment: Test for confirming EP1 receptor antagonistic effect: suppression of prostaglandin E2-induced rise in intracellular calcium concentration. In kind it is cell-based. The following applies: rat EP1 receptor-expressing COS-1 cells; prostaglandin E2 10 nM; Fluo 4-AM fluorescent signal; test compound 0.1 nM to 10 μM. How it is done: (1) Preparation of Rat EP1 Expression Vector
The first PCR was performed with Rat Kidney BD Marathon-Ready cDNA (Nippon Becton Dickinson Co., Ltd.) as a template using a forward primer represented by SEQ ID NO: 1 and a reverse primer represented by SEQ ID NO: 2 and using KOD-Plus-Ver 2.0 (Toyobo Co., Ltd.). The second PCR was further performed in a similar manner with this amplification product as a template using a forward primer represented by SEQ ID NO: 3 and a reverse primer represented by SEQ ID NO: 4. The amplification product obtained by the second PCR was incorporated into a vector (pcDNA3.1 D/V5-His-TOPO (registered trademark), Invitrogen Corporation). This vector with the incorporated amplification product was introduced to E. coli (One Shot TOP10 Competent Cell, Invitrogen Corporation) by a conventional method to perform transformation. This transformed E. coli was cultured for 1 day in an LB agar medium. After the culture, colonies were selected and cultured in an LB liquid medium containing 50 μg/mL of ampicillin. After the culture, the vector was purified using QIAprep Spin Miniprep Kit (Qiagen Corporation). The base sequence (SEQ ID NO: 5) of the inserted site in this vector was compared with the base sequence (Ptger1) of rat EP1 registered under Accession No. NM_013100 in a heretofore known database (NCBI) and consequently was completely identical except for 1 base. Moreover, an amino acid sequence translated from this base sequence was completely identical to the amino acid sequence of the rat EP1 receptor registered under Accession No. NP_037232 in NCBI. Thus, it was confirmed that the cloned gene sequence was the base sequence of the rat EP1 receptor and the obtained amino acid sequence was the rat EP1 receptor. The pcDNA3.1 D/V5-His-TOPO (registered trademark) in which the nucleic acid represented by SEQ ID NO: 5 was inserted was used as a rat EP1 expression vector.
(2) Preparation of Rat EP1 Receptor-Expressing Cell
COS-1 cells (Dainippon Sumitomo Pharma Co., Ltd.) were cultured at 37° C. in an incubator under 5% CO2 gas conditions using a D-MEM liquid medium (containing high glucose and L-glutamine, Invitrogen Corporation) supplemented with a penicillin-streptomycin solution (Invitrogen Corporation, final concentration: 100 U/mL as benzylpenicillin; 100 μg/mL as streptomycin) as antibiotics, MEM non-essential amino acids (Invitrogen Corporation, final concentration: 0.1 mM), and fetal bovine serum (Moregate Biotech, final concentration: 10%), until reaching confluence.
The cells that reached confluence were dissociated with 0.05% trypsin/0.53 mM EDTA.4Na (Invitrogen Corporation) and resuspended in the liquid medium. The resuspended cells were diluted with the liquid medium so that the spread ratio became 1:4 to 1:8, and were cultured.
The cells that reached confluence were dissociated with 0.05% trypsin/0.53 mM EDTA.4Na and resuspended in a D-MEM liquid medium (containing high glucose and L-glutamine, Invitrogen Corporation) supplemented with MEM non-essential amino acids (final concentration: 0.1 mM) and fetal bovine serum (final concentration: 10%). This resuspended cell suspension was prepared with a liquid medium so as to become the number of cells 5×10^4 cells/100 μL of the liquid medium/well in each well of a poly-D-lysine-coated 96-well microplate (BD BioCoat (registered trademark), Nippon Becton Dickinson Co., Ltd.), and this cell preparation was dispensed at 100 μL to each well and seeded. After the seeding, the cells were cultured at 37° C. in an incubator under 5% CO2 gas conditions. The introduction of the rat EP1 expression vector was performed by procedures shown below at the point in time when the cells for introduction of this rat EP1 expression vector adhered (approximately 2 hours after the seeding).
Lipofectamine 2000 (Invitrogen Corporation) was used for the introduction of the rat EP1 expression vector. […]

Usually IC50 stands for the midpoint of a concentration-inhibition curve. In the case of `O=C(O)c1cccc(Cc2c(-c3ccccc3)nn3cc(Cl)ccc23)n1` [Example 3-3, 6-[(6-Chloro-2-phenylpyrazolo[1,5-a]pyridin-3-yl)methyl]pyridine-2-carboxylic acid], the “Amount of change in intravesical pressure” value in test [1] came out at 53%. The IC50 on rat EP1 receptor stood at 8 nM.
